Test results published in patent US10227357B2, “Compounds and methods for kinase modulation, and indications therefor” (Plexxikon Inc., priority 2012, dated 2019).

Columns and labels:
c-kit kinase = target: T1, c-kit kinase (Homo sapiens, UniProt P10721); assay: c-Kit biochemical assay, AlphaScreen, 10 μM ATP; details: c-kit biochemical inhibitory activity; read-out: Biochemical activity (IC50 μM) Kit
T1 construct: The c-kit (or kinase domain thereof) is an active kinase in AlphaScreen; poly-Histidine tag (in-house protein only) (cleaved yes); host or cells: E. coli BL21(DE3)RIL, co-expressed with PTP1B
How it was run: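 His-tagged c-Kit expressed in E. coli with co-expressed PTP1B (dephosphorylated), tag removed; 0.1 ng per reaction with biotinylated-peptide substrate in 50 mM HEPES pH 7.2, 5 mM MgCl2, 5 mM MnCl2, 5% DMSO, 10 μM ATP, 1 h at room temperature. Phosphorylation detected by AlphaScreen (streptavidin donor, PY20 acceptor beads); IC50 from 8-point 1:3 dilution series.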

c-kit mutant D816V = target: T2, c-kit mutant D816V (Homo sapiens, UniProt P10721, D816V/DEL694-753); assay: c-Kit mutant D816V biochemical assay, AlphaScreen; details: c-kit D816V biochemical inhibitory activity; read-out: Biochemical activity (IC50 μM) Kit D816V
T2 construct: residues 551-934, kinase insertion domain residues 694-753 deleted; 6x-histidine (N); made in house; host or cells: E. coli Arctic Express (DE3) RIL (Stratagene)
How it was run: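 Purified His-tagged c-Kit D816V (E. coli-expressed) assayed in 25 mM HEPES pH 7.2 with Mg/Mn, 5% DMSO and 10 μM ATP, 30 min at room temperature, 8-point 1:3 dilutions. Phosphorylation detected by AlphaScreen with streptavidin donor and PY20 acceptor beads; IC50 from signal versus concentration.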

T1 sequence (P10721 26-976): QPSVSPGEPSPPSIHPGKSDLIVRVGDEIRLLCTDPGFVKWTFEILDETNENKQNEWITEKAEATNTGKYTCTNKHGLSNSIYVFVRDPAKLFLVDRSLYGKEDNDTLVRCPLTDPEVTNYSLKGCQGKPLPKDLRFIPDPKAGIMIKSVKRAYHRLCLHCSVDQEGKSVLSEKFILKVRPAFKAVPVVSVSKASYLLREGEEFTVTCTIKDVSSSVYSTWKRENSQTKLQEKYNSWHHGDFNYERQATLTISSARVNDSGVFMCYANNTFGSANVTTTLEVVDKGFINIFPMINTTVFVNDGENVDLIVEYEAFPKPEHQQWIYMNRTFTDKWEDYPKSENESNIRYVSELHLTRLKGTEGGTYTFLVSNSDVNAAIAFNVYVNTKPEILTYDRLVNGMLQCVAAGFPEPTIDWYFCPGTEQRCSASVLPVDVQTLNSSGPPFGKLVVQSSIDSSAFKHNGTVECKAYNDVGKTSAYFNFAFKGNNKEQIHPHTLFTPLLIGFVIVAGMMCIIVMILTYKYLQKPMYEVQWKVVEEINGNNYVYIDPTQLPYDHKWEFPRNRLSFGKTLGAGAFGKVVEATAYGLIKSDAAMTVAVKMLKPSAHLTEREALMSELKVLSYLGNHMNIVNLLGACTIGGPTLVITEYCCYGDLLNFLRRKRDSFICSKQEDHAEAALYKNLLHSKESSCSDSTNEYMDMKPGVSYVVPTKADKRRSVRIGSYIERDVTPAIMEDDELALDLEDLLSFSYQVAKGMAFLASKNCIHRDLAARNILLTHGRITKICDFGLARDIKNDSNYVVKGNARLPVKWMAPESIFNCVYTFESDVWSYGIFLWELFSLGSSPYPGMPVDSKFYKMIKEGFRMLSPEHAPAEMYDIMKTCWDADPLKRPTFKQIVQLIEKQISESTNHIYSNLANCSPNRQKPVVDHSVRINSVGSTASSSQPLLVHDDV
T2 sequence (P10721 with tags, fused parts or gaps DEL694-753/D816V): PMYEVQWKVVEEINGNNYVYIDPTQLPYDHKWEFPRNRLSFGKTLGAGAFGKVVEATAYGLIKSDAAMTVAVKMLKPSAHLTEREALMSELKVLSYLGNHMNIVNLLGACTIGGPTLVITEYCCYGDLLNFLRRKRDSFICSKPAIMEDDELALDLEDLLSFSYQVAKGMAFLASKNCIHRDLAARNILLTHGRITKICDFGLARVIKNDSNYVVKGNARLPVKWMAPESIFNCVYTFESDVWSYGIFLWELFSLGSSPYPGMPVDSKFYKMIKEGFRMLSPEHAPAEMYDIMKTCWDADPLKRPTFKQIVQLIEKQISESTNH

SMILES	IC50 (c-kit kinase)	IC50 (c-kit mutant D816V)
O=C(NS(=O)(=O)c1ccc(Cl)cc1)N1CCN(c2ncnc3[nH]c(-c4ccc(F)cc4)cc23)CC1 [P-0098, N-(4-chlorophenyl)sulfonyl-4-[6-(4-fluorophenyl)-7H-pyrrolo[2,3-d]pyrimidin-4-yl]piperazine-1-carboxamide]	1 to 10 µM	1 to 10 µM
NS(=O)(=O)c1ccc(-c2cc3c(N4CCN(C(=O)NCc5ccc(F)cc5)CC4)ncnc3[nH]2)cc1 [P-0099, N-[(4-fluorophenyl)methyl]-4-[6-(4-sulfamoylphenyl)-7H-pyrrolo[2,3-d]pyrimidin-4-yl]piperazine-1-carboxamide]	1 to 10 µM	0.0001 to 1 µM
NS(=O)(=O)c1ccc(-c2cc3c(N4CCN(C(=O)Nc5ccc(OC(F)(F)F)cc5)CC4)ncnc3[nH]2)cc1 [P-0100, 4-[6-(4-sulfamoylphenyl)-7H-pyrrolo[2,3-d]pyrimidin-4-yl]-N-[4-(trifluoromethoxy)phenyl]piperazine-1-carboxamide]	0.0001 to 1 µM	1 to 10 µM
O=C(NCc1ccc(F)cc1)N1CCN(c2ncnc3[nH]c(-c4ccncc4)cc23)CC1 [P-0101, N-[(4-fluorophenyl)methyl]-4-[6-(4-pyridyl)-7H-pyrrolo[2,3-d]pyrimidin-4-yl]piperazine-1-carboxamide]	1 to 10 µM	0.0001 to 1 µM
O=C(Nc1ccc(OC(F)(F)F)cc1)N1CCN(c2ncnc3[nH]c(-c4ccncc4)cc23)CC1 [P-0102, 4-[6-(4-pyridyl)-7H-pyrrolo[2,3-d]pyrimidin-4-yl]-N-[4-(trifluoromethoxy)phenyl]piperazine-1-carboxamide]	0.0001 to 1 µM	1 to 10 µM
Cc1ccc(-c2cc3c(N4CCN(C(=O)NCc5ccc(F)cc5)CC4)ncnc3[nH]2)cn1 [P-0103, N-[(4-fluorophenyl)methyl]-4-[6-(6-methyl-3-pyridyl)-7H-pyrrolo[2,3-d]pyrimidin-4-yl]piperazine-1-carboxamide]	1 to 10 µM	0.0001 to 1 µM
COc1cc(-c2cc3c(N4CCN(C(=O)NCc5ccc(F)cc5)CC4)ncnc3[nH]2)ccn1 [P-0104, N-[(4-fluorophenyl)methyl]-4-[6-(2-methoxy-4-pyridyl)-7H-pyrrolo[2,3-d]pyrimidin-4-yl]piperazine-1-carboxamide]	10 to 200 µM	1 to 10 µM
NS(=O)(=O)c1cccc(-c2cc3c(N4CCN(C(=O)NCc5ccc(F)cc5)CC4)ncnc3[nH]2)c1 [P-0105, N-[(4-fluorophenyl)methyl]-4-[6-(3-sulfamoylphenyl)-7H-pyrrolo[2,3-d]pyrimidin-4-yl]piperazine-1-carboxamide]	1 to 10 µM	0.0001 to 1 µM
COc1ncc(-c2cc3c(N4CCN(C(=O)NCc5ccc(F)cc5)CC4)ncnc3[nH]2)cn1 [P-0106, N-[(4-fluorophenyl)methyl]-4-[6-(2-methoxypyrimidin-5-yl)-7H-pyrrolo[2,3-d]pyrimidin-4-yl]piperazine-1-carboxamide]	1 to 10 µM	1 to 10 µM
CS(=O)(=O)Nc1cccc(-c2cc3c(N4CCN(C(=O)NCc5ccc(F)cc5)CC4)ncnc3[nH]2)c1 [P-0107, N-[(4-fluorophenyl)methyl]-4-[6-[3-(methanesulfonamido)phenyl]-7H-pyrrolo[2,3-d]pyrimidin-4-yl]piperazine-1-carboxamide]	1 to 10 µM	0.0001 to 1 µM
NC(=O)c1cccc(-c2cc3c(N4CCN(C(=O)NCc5ccc(F)cc5)CC4)ncnc3[nH]2)c1 [P-0108, 4-[6-(3-carbamoylphenyl)-7H-pyrrolo[2,3-d]pyrimidin-4-yl]-N-[(4-fluorophenyl)methyl]piperazine-1-carboxamide]	1 to 10 µM	0.0001 to 1 µM
N#Cc1ccc(-c2cc3c(N4CCN(C(=O)NCc5ccc(F)cc5)CC4)ncnc3[nH]2)cc1 [P-0109, 4-[6-(4-cyanophenyl)-7H-pyrrolo[2,3-d]pyrimidin-4-yl]-N-[(4-fluorophenyl)methyl]piperazine-1-carboxamide]	10 to 200 µM	1 to 10 µM
N#Cc1cccc(-c2cc3c(N4CCN(C(=O)NCc5ccc(F)cc5)CC4)ncnc3[nH]2)c1 [P-0110, 4-[6-(3-cyanophenyl)-7H-pyrrolo[2,3-d]pyrimidin-4-yl]-N-[(4-fluorophenyl)methyl]piperazine-1-carboxamide]	10 to 200 µM	1 to 10 µM
O=C(Nc1ccc(OC(F)(F)F)cc1)N1CCN(c2ncnc3[nH]c(-c4ccc(C5CC5)nc4)cc23)CC1 [P-0111, 4-[6-(6-cyclopropyl-3-pyridyl)-7H-pyrrolo[2,3-d]pyrimidin-4-yl]-N-[4-(trifluoromethoxy)phenyl]piperazine-1-carboxamide]	1 to 10 µM	10 to 200 µM
O=C(Nc1ccc(OC(F)(F)F)cc1)N1CCN(c2ncnc3[nH]c(-c4cnc(C5CC5)nc4)cc23)CC1 [P-0112, 4-[6-(2-cyclopropylpyrimidin-5-yl)-7H-pyrrolo[2,3-d]pyrimidin-4-yl]-N-[4-(trifluoromethoxy)phenyl]piperazine-1-carboxamide]	1 to 10 µM	10 to 200 µM
N#CC1(c2ccc(-c3cc4c(N5CCN(C(=O)Nc6ccc(OC(F)(F)F)cc6)CC5)ncnc4[nH]3)cc2)CC1 [P-0113, 4-[6-[4-(1-cyanocyclopropyl)phenyl]-7H-pyrrolo[2,3-d]pyrimidin-4-yl]-N-[4-(trifluoromethoxy)phenyl]piperazine-1-carboxamide]	0.0001 to 1 µM	1 to 10 µM
CN(C)c1ccc(-c2cc3c(N4CCN(C(=O)Nc5ccc(OC(F)(F)F)cc5)CC4)ncnc3[nH]2)cn1 [P-0114, 4-[6-[6-(dimethylamino)-3-pyridyl]-7H-pyrrolo[2,3-d]pyrimidin-4-yl]-N-[4-(trifluoromethoxy)phenyl]piperazine-1-carboxamide]	0.0001 to 1 µM	1 to 10 µM
Cc1ccc(-c2cc3c(N4CCN(C(=O)Nc5ccc(OC(F)(F)F)cc5)CC4)ncnc3[nH]2)cn1 [P-0115, 4-[6-(6-methyl-3-pyridyl)-7H-pyrrolo[2,3-d]pyrimidin-4-yl]-N-[4-(trifluoromethoxy)phenyl]piperazine-1-carboxamide]	0.0001 to 1 µM	10 to 200 µM
CNC(=O)c1cccc(-c2cc3c(N4CCN(C(=O)Nc5ccc(OC(F)(F)F)cc5)CC4)ncnc3[nH]2)c1 [P-0116, 4-[6-[3-(methylcarbamoyl)phenyl]-7H-pyrrolo[2,3-d]pyrimidin-4-yl]-N-[4-(trifluoromethoxy)phenyl]piperazine-1-carboxamide]	0.0001 to 1 µM	10 to 200 µM
COc1cc(-c2cc3c(N4CCN(C(=O)Nc5ccc(OC(F)(F)F)cc5)CC4)ncnc3[nH]2)ccn1 [P-0117, 4-[6-(2-methoxy-4-pyridyl)-7H-pyrrolo[2,3-d]pyrimidin-4-yl]-N-[4-(trifluoromethoxy)phenyl]piperazine-1-carboxamide]	0.0001 to 1 µM	10 to 200 µM
COc1ccc(-c2cc3c(N4CCN(C(=O)Nc5ccc(OC(F)(F)F)cc5)CC4)ncnc3[nH]2)cn1 [P-0118, 4-[6-(6-methoxy-3-pyridyl)-7H-pyrrolo[2,3-d]pyrimidin-4-yl]-N-[4-(trifluoromethoxy)phenyl]piperazine-1-carboxamide]	0.0001 to 1 µM	10 to 200 µM
CS(=O)(=O)Nc1cccc(-c2cc3c(N4CCN(C(=O)Nc5ccc(OC(F)(F)F)cc5)CC4)ncnc3[nH]2)c1 [P-0119, 4-[6-[3-(methanesulfonamido)phenyl]-7H-pyrrolo[2,3-d]pyrimidin-4-yl]-N-[4-(trifluoromethoxy)phenyl]piperazine-1-carboxamide]	0.0001 to 1 µM	1 to 10 µM
CC(=O)Nc1cccc(-c2cc3c(N4CCN(C(=O)Nc5ccc(OC(F)(F)F)cc5)CC4)ncnc3[nH]2)c1 [P-0120, 4-[6-(3-acetamidophenyl)-7H-pyrrolo[2,3-d]pyrimidin-4-yl]-N-[4-(trifluoromethoxy)phenyl]piperazine-1-carboxamide]	0.0001 to 1 µM	1 to 10 µM
N#Cc1cccc(-c2cc3c(N4CCN(C(=O)Nc5ccc(OC(F)(F)F)cc5)CC4)ncnc3[nH]2)c1 [P-0121, 4-[6-(3-cyanophenyl)-7H-pyrrolo[2,3-d]pyrimidin-4-yl]-N-[4-(trifluoromethoxy)phenyl]piperazine-1-carboxamide]	10 to 200 µM	10 to 200 µM
O=C(NCc1ccc(Cl)cn1)N1CCN(c2ncnc3[nH]c(-c4cccnc4)cc23)CC1 [P-0123, N-[(5-chloro-2-pyridyl)methyl]-4-[6-(3-pyridyl)-7H-pyrrolo[2,3-d]pyrimidin-4-yl]piperazine-1-carboxamide]	0.0001 to 1 µM	0.0001 to 1 µM
O=C(Nc1ccc(OC(F)F)cc1)N1CCN(c2ncnc3[nH]c(-c4ccc(F)cc4)cc23)CC1 [P-0125, N-[4-(difluoromethoxy)phenyl]-4-[6-(4-fluorophenyl)-7H-pyrrolo[2,3-d]pyrimidin-4-yl]piperazine-1-carboxamide]	0.0001 to 1 µM	1 to 10 µM
COc1cc(CNC(=O)N2CCN(c3ncnc4[nH]c(-c5cccnc5)cc34)CC2)ccn1 [P-0127, N-[(2-methoxy-4-pyridyl)methyl]-4-[6-(3-pyridyl)-7H-pyrrolo[2,3-d]pyrimidin-4-yl]piperazine-1-carboxamide]	10 to 200 µM	1 to 10 µM
COc1cccc(CNC(=O)N2CCN(c3ncnc4[nH]c(-c5cccnc5)cc34)CC2)n1 [P-0128, N-[(6-methoxy-2-pyridyl)methyl]-4-[6-(3-pyridyl)-7H-pyrrolo[2,3-d]pyrimidin-4-yl]piperazine-1-carboxamide]	10 to 200 µM	1 to 10 µM
